{"source": "patent EP3228306A1", "about": "“COMPLEX COMPOUND COMPRISING OBETICHOLIC ACID AND CYCLODEXTRIN AND PHARMACEUTICAL FORMULATION COMPRISING THE COMPLEX COMPOUND” (ratiopharm GmbH, priority 2016, dated 2017)", "key": {"[1]": {"conditions": "cited from earlier work"}, "[2]": {"assay": "Solubility of OCA in concentrated aqueous CD solutions (Experiment 2)", "format": "physicochemical", "conditions": "stirred 60 h", "protocol": "Variable amounts of solid OCA (left column of the Tables given below) were stirred in aqueous CD-solutions (14% (w/w) α-CD, 1.8% β-CD, 20% γ-CD, 20% HP-β-CD, 30% SB-β-CD, 30% RM-β-CD, and 40% HP-γ-CD) for 60 h. Aliquots were filtered through 0.2 µm disposable PTFE filters and the filtrates were analyzed by HPLC/UV. The concentration of OCA was determined based on a calibration curve which was established by twofold analysis of five calibration standards with 0.01 mg/mL to 1.0 mg/mL OCA."}, "[3]": {"conditions": "reported in WO 2013/192097; measured in 0.1 N HCl after equilibration under stirring for one week at 25°C; cited from earlier work"}, "[4]": {"assay": "Solubility of OCA:CD complexes in physiologically relevant media", "format": "physicochemical", "conditions": "thermodynamic from solid, 37°C, complex corresponding to 20 mg obeticholic acid in 2 mL", "protocol": "Obeticholic acid (OCA) or OCA: Cyclodextrin (CD) complex was weighed into a glass vial, followed by addition of 1 or 2 ml solvent (water, 0.01 N HCl, phosphate buffer pH 6.8 and FaSSIF). A stirring bar was added, the vial was fixed in a block heater at 37°C and the suspension was stirred with approx. 250 rpm. After 15 min and 1 h, samples were withdrawn, filtered through a 0.2 µm disposable filter, 100 µl of the clear filtrate were diluted with 900 µl acetonitrile (ACN):Water (1:1) and 1 µl thereof were analyzed by UHPLC/UV.\nSolubilities of OCA:CD complexes were determined by stirring an amount of complex which corresponds to 20 mg of obeticholic acid (calculated from the known drug loads) in 2 mL of solvent for 15 min and 60 min at 37°C according to the method described above under \"Analytical Methods\". Solubility values are given in mg/ml."}}, "note": "Where two headings read alike, the source gives them in different places."}
{"compound": "CC[C@H]1[C@@H](O)[C@@H]2[C@H](CC[C@]3(C)[C@@H]([C@H](C)CCC(=O)O)CC[C@@H]23)[C@@]2(C)CC[C@@H](O)C[C@@H]12", "note": "[OCA, 6α-ethyl-chenodeoxycholic acid]", "values": [{"measurement": "thermodynamic pKa", "setting": "[1]", "value": "about 5"}, {"measurement": "dissolved OCA", "setting": "[2]; HP-β-CD (20%) aqueous solution, OCA 10 mg/mL weighed", "value": 9.425, "unit": "mg/mL"}, {"measurement": "dissolved OCA", "setting": "[2]; HP-β-CD (20%) aqueous solution, OCA 20 mg/mL weighed", "value": 18.716, "unit": "mg/mL"}, {"measurement": "dissolved OCA", "setting": "[2]; HP-β-CD (20%) aqueous solution, OCA 40 mg/mL weighed", "value": 37.499, "unit": "mg/mL"}, {"measurement": "dissolved OCA", "setting": "[2]; HP-β-CD (20%) aqueous solution, OCA 50 mg/mL weighed", "value": 45.473, "unit": "mg/mL"}, {"measurement": "dissolved OCA", "setting": "[2]; HP-β-CD (20%) aqueous solution, OCA 60 mg/mL weighed", "value": 45.785, "unit": "mg/mL"}, {"measurement": "dissolved OCA", "setting": "[2]; HP-γ-CD (40%) aqueous solution, OCA 10 mg/mL weighed", "value": 8.704, "unit": "mg/mL"}, {"measurement": "dissolved OCA", "setting": "[2]; HP-γ-CD (40%) aqueous solution, OCA 20 mg/mL weighed", "value": 18.095, "unit": "mg/mL"}, {"measurement": "dissolved OCA", "setting": "[2]; HP-γ-CD (40%) aqueous solution, OCA 40 mg/mL weighed", "value": 35.632, "unit": "mg/mL"}, {"measurement": "dissolved OCA", "setting": "[2]; HP-γ-CD (40%) aqueous solution, OCA 80 mg/mL weighed", "value": 62.989, "unit": "mg/mL"}, {"measurement": "dissolved OCA", "setting": "[2]; RM-β-CD (30%) aqueous solution, OCA 20 mg/mL weighed", "value": 17.374, "unit": "mg/mL"}, {"measurement": "dissolved OCA", "setting": "[2]; RM-β-CD (30%) aqueous solution, OCA 40 mg/mL weighed", "value": 37.316, "unit": "mg/mL"}, {"measurement": "dissolved OCA", "setting": "[2]; RM-β-CD (30%) aqueous solution, OCA 80 mg/mL weighed", "value": 63.629, "unit": "mg/mL"}, {"measurement": "dissolved OCA", "setting": "[2]; RM-β-CD (30%) aqueous solution, OCA 160 mg/mL weighed", "value": 78.693, "unit": "mg/mL"}, {"measurement": "dissolved OCA", "setting": "[2]; SB-β-CD (30%) aqueous solution, OCA 20 mg/mL weighed", "value": 17.545, "unit": "mg/mL"}, {"measurement": "dissolved OCA", "setting": "[2]; SB-β-CD (30%) aqueous solution, OCA 40 mg/mL weighed", "value": 38.735, "unit": "mg/mL"}, {"measurement": "dissolved OCA", "setting": "[2]; SB-β-CD (30%) aqueous solution, OCA 80 mg/mL weighed", "value": 60.767, "unit": "mg/mL"}, {"measurement": "dissolved OCA", "setting": "[2]; SB-β-CD (30%) aqueous solution, OCA 160 mg/mL weighed", "value": 57.080, "unit": "mg/mL"}, {"measurement": "dissolved OCA", "setting": "[2]; α-CD (14%) aqueous solution, OCA 5 mg/mL weighed", "value": 4.614, "unit": "mg/mL"}, {"measurement": "dissolved OCA", "setting": "[2]; α-CD (14%) aqueous solution, OCA 10 mg/mL weighed", "value": 6.154, "unit": "mg/mL"}, {"measurement": "dissolved OCA", "setting": "[2]; α-CD (14%) aqueous solution, OCA 20 mg/mL weighed", "value": 6.937, "unit": "mg/mL"}, {"measurement": "dissolved OCA", "setting": "[2]; α-CD (14%) aqueous solution, OCA 40 mg/mL weighed", "value": 7.141, "unit": "mg/mL"}, {"measurement": "dissolved OCA", "setting": "[2]; β-CD (1.8%) aqueous solution, OCA 2.5 mg/mL weighed", "value": 2.229, "unit": "mg/mL"}, {"measurement": "dissolved OCA", "setting": "[2]; β-CD (1.8%) aqueous solution, OCA 5 mg/mL weighed", "value": 4.312, "unit": "mg/mL"}, {"measurement": "dissolved OCA", "setting": "[2]; β-CD (1.8%) aqueous solution, OCA 10 mg/mL weighed", "value": 4.830, "unit": "mg/mL"}, {"measurement": "dissolved OCA", "setting": "[2]; β-CD (1.8%) aqueous solution, OCA 20 mg/mL weighed", "value": 4.880, "unit": "mg/mL"}, {"measurement": "dissolved OCA", "setting": "[2]; γ-CD (20%) aqueous solution, OCA 5 mg/mL weighed", "value": 0.069, "unit": "mg/mL"}, {"measurement": "dissolved OCA", "setting": "[2]; γ-CD (20%) aqueous solution, OCA 10 mg/mL weighed", "value": 0.069, "unit": "mg/mL"}, {"measurement": "dissolved OCA", "setting": "[2]; γ-CD (20%) aqueous solution, OCA 20 mg/mL weighed", "value": 0.066, "unit": "mg/mL"}, {"measurement": "dissolved OCA", "setting": "[2]; γ-CD (20%) aqueous solution, OCA 40 mg/mL weighed", "value": 0.055, "unit": "mg/mL"}, {"measurement": "water solubility", "setting": "[3]", "value": 7.5, "unit": "µg/mL"}, {"measurement": "solubility at 15 min", "setting": "[4]; 0.01 N HCl, pH 2.2, simulated gastric fluid, read-out: Solubility, 0.01 N HCl (pH 2.2), 15 min", "value": "< 10", "unit": "µg/mL"}, {"measurement": "solubility at 60 min", "setting": "[4]; 0.01 N HCl, pH 2.2, simulated gastric fluid, read-out: Solubility, 0.01 N HCl (pH 2.2), 60 min", "value": "< 10", "unit": "µg/mL"}, {"measurement": "solubility at 15 min", "setting": "[4]; 50 mM KH2PO4 phosphate buffer, pH 6.5, aqueous buffer, read-out: Solubility, 50 mM KH2PO4 (pH 6.5), 15 min", "value": 110, "unit": "µg/mL"}, {"measurement": "solubility at 60 min", "setting": "[4]; 50 mM KH2PO4 phosphate buffer, pH 6.5, aqueous buffer, read-out: Solubility, 50 mM KH2PO4 (pH 6.5), 60 min", "value": 110, "unit": "µg/mL"}, {"measurement": "solubility at 15 min", "setting": "[4]; FaSSIF, pH 6.5, fassif, Fasted State Simulated Intestinal Fluid, read-out: Solubility, FassiF* (pH 6.5), 15 min", "value": 520, "unit": "µg/mL"}, {"measurement": "solubility at 60 min", "setting": "[4]; FaSSIF, pH 6.5, fassif, Fasted State Simulated Intestinal Fluid, read-out: Solubility, FassiF* (pH 6.5), 60 min", "value": 420, "unit": "µg/mL"}, {"measurement": "solubility at 15 min", "setting": "[4]; water, pH 7, water, read-out: Solubility, Water (pH 7), 15 min", "value": "< 10", "unit": "µg/mL"}, {"measurement": "solubility at 60 min", "setting": "[4]; water, pH 7, water, read-out: Solubility, Water (pH 7), 60 min", "value": "< 10", "unit": "µg/mL"}]}
